Measurements reported in US20080220140A1, “USE OF PROPENYLPHENYL GLYCOSIDES FOR ENHANCING SWEET SENSORY IMPRESSIONS” (SYMRISE GmbH & Co. KG, priority 2007, published 2008).

Tests used:
[1] = Enhancement of the sweet impression of sucrose-containing yoghurt, rated 1-10 by a group of experts; type: in vivo; conditions: 200 ppm in yoghurt (0.5% fat content), sucrose 5%
Procedure: In order to quantify the enhancement of a sweet impression by addition of the propenylphenyl glycosides to be used according to the invention, the sweetness of sucrose-containing yoghurt (0.5% fat content) and of samples containing the same amount of sucrose and in addition a specific concentration of the propenylphenyl glycosides of formula (I) to be used according to the invention was determined by a group of experts (rating 1 [extremely slightly sweet] to 10 [extremely sweet]). Evaluation was carried out by calculating the enhancement (in %) of the sweetness impression from the average values of the assessments of the yoghurts containing sucrose (a) or sucrose and propenylphenyl glycoside (b).

[2] = Low-fat yoghurts with reduced sugar, sensory duo test with 16 panellists; type: in vivo; conditions: yoghurt 0.1% fat, 8% versus 10% sucrose; compound 1 0.015%, hesperetin 0.01%
Procedure: Comparison preparation with sugar (A) Comparison preparation with reduced sugar content […] Preparations according to the invention with reduced sugar content and compound 1 (C) Comparison preparation with reduced sugar content and hesperetin (D)
The ingredients were mixed and cooled at 5° C.

SMILES	% Enhancement of the sweetness impression ([1]; (16/10), p < 0.05)	Sweetness impression (1-10) b) with ([1]; rating 1 extremely slightly sweet to 10 extremely sweet)	Compensation of the loss of sweetness as a result of sugar reduction [2]
C=CCc1ccc(O[C@@H]2O[C@H](CO)[C@@H](O)[C@H](O)[C@H]2O)cc1 [compound 1, 1-O-[4-(propen-2-enyl)phenyl]-D-glucopyranoside]	+24%	4.9 ± 1.4	
COc1ccc(C2CC(=O)c3c(O)cc(O)cc3O2)cc1O (stereo not drawn) [hesperetin, reference compound]			less good results
